Experiment [1] deals with SP2 mouse myeloma cells. Description: mouse tumour model, survival of Balb/c mice injected with SP2 cells. It counts as in vivo. The settings on record: groups of 8 Balb/c mice; i.p. once a day, five days a week; adriamycin 0.25 mg/kg, tolmetin 70 mg/kg; after 32 days. The procedure: The in vivo relevance of our findings was studied using a mouse tumour model. SP2 tumour cells were injected into 4 groups of mice. Groups of 8 male Balb/c mice 8 weeks old were maintained on normal diets. Animals were injected with 2 million SP2 mouse myeloma cells on day 1. On day 3 intraperitoneal injection with adriamycin, tolmetin or a combination of the two was begun. This continued once a day, five days a week for a total of 32 days. The agents were dissolved in PBS and prepared freshly twice per week. The animals were weighed and the average weight of the group was used to calculate the required concentration of the drugs. Adriamycin was administered to give a final concentration of 0.25 mg/kg, the tolmetin dose was 70 mg/kg. […] The results were expressed as the number of animals alive each day as a percentage of the original number of animals alive.
Group 1 received injections of the vehicle (PBS) alone, group 2, adriamycin at 0.25 mg/kg, group 3, tolmetin at 70 mg/kg and group 4 received both agents (adriamycin, 0.25 mg/kg and tolmetin, 70 mg/kg). After 32 days there were clear differences in the % survival between the groups (FIG. 5). […] Two mice remained in the adriamycin group but 5 survived to the end of the experiment from the combination group (group 4).

The test system of experiment [2] is A549 cell line. Description: miniaturised in vitro colorimetric cell survival assay (acid phosphatase end-point), A549. It counts as cell-based, human. The procedure:
(§1) All the results presented in this Example for the DLKP, A549 and OAW42-SR cell lines were derived using the same miniaturised in vitro calorimetric assay system. On Day 1 of the assay 1000 cells/well/100 μl were plated into 96-well plates. Cells were allowed to attach overnight and cell viability was visually assessed. […] NSAID plus chemotherapeutic drug) to be analysed were added onto the cells. The individual drugs were added separately in 50 μl quantities (4× stocks, to take into account the dilution effect of having 200 μl final volume in each well). The drugs were left on the cells for five further days (Day 7) and cell number was determined using the acid phosphatase end-point assay which uses p-nitrophenol phosphate as substrate (Martin, A. and Clynes, M. (1991) In Vitro Dev. Biol., 27A, 183-184). On Day 7 the culture medium was removed from the cells and they were washed once with phosphate buffered saline (PBS). […] After the incubation period 50 μl of 1N NaOH was added to each well to develop the colour. The plates were then read at 405 nm (reference 620 nm) on an ELISA plate-reader. […] All results are the cell survival means ±S.D. from a minimum of three experiments.

The subject of experiment [3] is DLKP cell line. The experiment can be described thus: miniaturised in vitro colorimetric cell survival assay (acid phosphatase end-point), DLKP. The settings on record: i) Adriamycin 10 ng/ml alone. It counts as cell-based, human. As for the experimental part:
as §1

Experiment [4] relates to COR L23 P (non-MRP) cells. The settings on record: doxorubicin 10 mg/ml alone or with sulindac 20 mg/ml, 1, 2, 4 h, FIG. 4.
Method: (§2) 10^6 COR L23 P (parental non-MRP resistant, MRP−) or COR L23 R (MRP resistant, MRP+) cells were added to 75 cm^3 vented flasks containing HEPES buffered Rosemount Park Memorial Institute (RPMI) medium and maintained at 37° C. in a 5% CO2 atmosphere. […] After three days of growth, doxorubicin (final concentration 10 mg/ml), sulindac (final concentration 20 mg/ml) or doxorubicin and sulindac were added to individual flasks. Samples were taken after 1, 2 and 4 h. and assayed for drug content.
(§3) The contents of each flask were washed twice with 5 ml of PBS and stored at −70° C. The flasks were thawed and 100 μl of water and 100 μl of 33% silver nitrate added to each and mixed for 5 min. […]
(§4) The extract was resuspended in 50 μl of methanol in the sample vial and loaded into the HPLC autosampler. […] The mobile phases were pumped through a C18 reversed-phase Ultrasphere XL (Beckman) HPLC column (4.6×70 mm) with absorbance measured at 253 nm. […] The amount of doxorubicin and sulindac present was quantified by measuring the peak height of these drugs and the internal standard. […] The concentration of doxorubicin in the samples was calculated from the) nd development standard line using the peak height ratio. The sulindac concentrations were calculated by the same method.
The test system of experiment [5] is OAW42-SR cell line. Description: miniaturised in vitro colorimetric cell survival assay, LRP overexpressing OAW42-SR. It counts as cell-based, human. As to conditions: vi) Adriamycin 147 ng/ml alone. The procedure: All the results presented in this Example for the DLKP, A549 and OAW42-SR cell lines were derived using the same miniaturised in vitro calorimetric assay system. On Day 1 of the assay 1000 cells/well/100 μl were plated into 96-well plates. Cells were allowed to attach overnight and cell viability was visually assessed. On Day 2 the two drugs (i.e. NSAID plus chemotherapeutic drug) to be analysed were added onto the cells. The individual drugs were added separately in 50 μl quantities (4× stocks, to take into account the dilution effect of having 200 μl final volume in each well). The drugs were left on the cells for five further days (Day 7) and cell number was determined using the acid phosphatase end-point assay which uses p-nitrophenol phosphate as substrate (Martin, A. and Clynes, M. (1991) In Vitro Dev. Biol., 27A, 183-184). On Day 7 the culture medium was removed from the cells and they were washed once with phosphate buffered saline (PBS). […] After the incubation period 50 μl of 1N NaOH was added to each well to develop the colour. The plates were then read at 405 nm (reference 620 nm) on an ELISA plate-reader. […] All results are the cell survival means ±S.D. from a minimum of three experiments.

In experiment [6] the test system is COR L23 R (MRP+) cells. As to conditions: doxorubicin 10 mg/ml alone or with sulindac 20 mg/ml, 1, 2, 4 h, FIG. 3.
Method: as §2, §3, §4

In general, viability refers to a read-out of living cells in per cent, often relative to untreated cells. Consider `COc1cccc2c1C(=O)c1c(O)c3c(c(O)c1C2=O)C[C@@](O)(C(=O)CO)C[C@@H]3O[C@H]1C[C@H](N)[C@H](O)[C@H](C)O1` [Adriamycin, adriamycin], for which, in experiment [1], the “mice surviving to the end of the experiment” value is listed as “Two”. Besides, the viability at 0.04 µg/mL in experiment [2] (Homo sapiens, A549, 120 h, ix) Adriamycin 40 ng/ml alone) was 54 ± 6.05%; in experiment [2] (Homo sapiens, A549, 120 h, xi) Adriamycin 40 ng/ml alone), 46 ± 5.05%. Moreover, the viability at 0.015 µg/mL in experiment [2] (Homo sapiens, A549, 120 h, viii) Adriamycin 15 ng/ml alone) stood at 61 ± 5.05%; in experiment [2] (Homo sapiens, A549, 120 h, x) Adriamycin 15 ng/ml alone), 47 ± 5.15%; in experiment [2] (Homo sapiens, A549, 120 h, xii) Adriamycin 15 ng/ml alone), 70.7 ± 4.25%; in experiment [2] (Homo sapiens, A549, 120 h, xiii) Adriamycin 15 ng/ml alone), 68 ± 5.82%; in experiment [2] (Homo sapiens, A549, 120 h, xv) Adriamycin 15 ng/ml alone), 89 ± 11.9%. Besides, the viability at 0.02 µg/mL in experiment [2] (Homo sapiens, A549, 120 h, xiv) Adriamycin 20 ng/ml alone) stood at 78 ± 3.95%. In experiment [2] (Homo sapiens, A549, 120 h, xvi) Adriamycin 17 ng/ml alone), this compound displayed a viability at 0.017 µg/mL of 76.7 ± 5.4%. Besides, the “% cell survival” value in experiment [3] is listed as 60.35 ± 3.2%; in experiment [5] it was 47.41 ± 1.3%. The “doxorubicin level in the cells” value in experiment [4] was “high levels of doxorubicin are found in the cell”; in experiment [6], “less doxorubicin is found in the cells”.
